Measurements as given in US4071408A, “Neuraminidase” (Research Corporation, priority 1976, dated 1978).
Several values for one entry are separate records, joined by “and”; a condition that tells them apart may be missing. Identical values can stand only once.

Test system: Arthrobacter sialophilum neuraminidase (NANAase, E.C.3.2.1.18), purified extracellular enzyme
Experiment: Neuraminidase kinetics and effector tests (release of N-acetylneuraminic acid, citrate-phosphate buffer pH 6.0, 37° C.)
Type: biochemical
Procedure: Neuraminidase and related assays. The activity of enzyme preparations was determined as follows: A reaction mixture containing 40 μmols of citrate-phosphate buffer, pH 6.0, 1.0 mg of Collocalia mucoid and the enzyme fraction in a final volume of 0.50 ml was incubated at 37° C. Aliquots of 0.20 ml were withdrawn at 5 and 10 minutes, and the N-acetylneuraminic acid determined. In all experiments, zero time points were run for each extract. A unit of enzyme activity is defined as that amount which releases 1 μmol of N-acetylneuraminic acid per minute from the mucoid preparation, under conditions of the standard assay given above. Specific activity is expressed as units/mg of protein. Protein was determined with crystalline bovine serum albumin as standard. N-acetylneuraminate pyruvatelyase assays were carried out.
Enzyme characteristics. Enzyme activity increased linearly with concentration up to 0.28 mg/ml protein. The effect of pH on the activity was examined in citrate-phosphate buffer. A pH activity profile with Collocalia mucoid gave a broad optimum around 5-6. The Km values for Collocalia mucoid and N-acetylneuraminlactose were determined from the kinetic data given as inverse plots. […]

| Compound | effect of EDTA on neuraminidase activity (EDTA between 10^-3 M and 10^-2 M, included in the assay mixture or preincubated with the enzyme for 30 min at 37° C.) | Km (apparent Km from inverse plots of kinetic data, purified enzyme, read-out: Km for N-acetylneuraminlactose) |
| --- | --- | --- |
| O=C(O)CN(CCN(CC(=O)O)CC(=O)O)CC(=O)O [EDTA] | no effect | – |
| N-acetylneuraminlactose | – | ~3.3 mM and 3.3 mM |
